Measured values taken from patent publication US9352015B2, “Antimicrobial peptides” (priority 2009, dated 2016).
Converted amounts (≈) assume the structure as drawn. “And” between values parts separate entries of the source, which are not always exact repeats. Identical values can stand only once. Like-named read-outs stand apart in the source and are kept apart here.

Key:
Pseudomonas aeruginosa = settings: for MIC PAO 1: 37° C., 24 h, strain PAO1; for MIC GM (geometric mean of the MIC values): six P. aeruginosa strains; for MIC CP 204: strain CP204; for MIC M 2: strain M2; for MIC PA 14: strain PA14; for MIC PAK: strain PAK; for MIC WR 5: strain WR5; for Pseudomonas aeruginosa MICGM: geometric mean, 6 different isolates, 24 hours at 37° C.
Acinetobacter baumannii = assay type: cell-based; settings: for Acinetobacter baumannii MICGM: geometric mean, 11 different isolates, 24 hours at 37° C.
Protocol: (§1) Minimal inhibitory concentrations (MICs) are determined using a standard microtiter dilution method, with 3 sets of determinations, in LB (Luria-Bertani) no-salt medium (10 g of tryptone and 5 g of yeast extract per liter). In some cases, Mueller Hinton (MH) medium or Brain Heart Infusion (BHI) medium is used.
(§2) Briefly, cells were grown overnight at 37° C. in LB and diluted in the same medium. Serial dilutions of the peptides are added to the microtiter plates in a volume of 100 μl followed by 10 μl of bacteria to give a final inoculum of 5×10^5 colony-forming units/ml. Plates are incubated at 37° C. for 24 hours and MICs determined as the lowest peptide concentration that inhibited growth. Alternatively, minimal inhibitory concentrations are determined using a standard microtiter dilution method in a Mueller-Hinton (MH) medium. Briefly, cells are grown overnight at 37° C. in MH broth and diluted in the same medium. In some cases, serial dilutions of the peptides are added to the microtiter plates in a volume of 100 μl followed by 10 μl of bacteria to give a final inoculum of 1×10^5 colony-forming units/ml. Plates are incubated at 37° C. for 24 hours and MICs are determined as the lowest peptide concentration that inhibited growth.
The biological activities of these six peptide analogs was determined against 11 clinical isolated of Acinetobacter baumannii (Table 9). Please note that the activities are reported in micromolar rather than microgram/ml. This allows a direct comparison on a molar basis with the effectiveness of molecules of different molecular weights whether peptides disclosed herein or antibiotics which in general are smaller in molecular mass. […] These are the highest antimicrobial activities observed in studies of antimicrobial peptides derived by modifying the peptide sequence of SEQ ID NO:24 (D1). D22 has the best hemolytic activity of the six analogs (D17-D22) and a therapeutic index of […] compared to […] for D1 (Table 9). D22 has no apparent advantage over D1 as determined in these experiments.

[1] = RP-HPLC temperature profiling (peptide self-association parameter PA); assay type: physicochemical; settings: RP-HPLC temperature profiling 5-80° C., pH 2, relative to control peptide C
Protocol: Temperature profiling analyses were performed on the same column in 3° C. increments, from 5° C. to 80° C., using a linear AB gradient of 0.5% acetonitrile/min, as described previously (30, 53, 92, 93).
Peptide self-association (i.e., the ability to oligomerize/dimerize) in aqueous solution is a very important parameter for antimicrobial activity (53, 92, 93). Without wishing to be bound by any particular theory, the present inventors postulated that monomeric random-coil antimicrobial peptides are best suited to pass through the capsule and cell wall of microorganisms prior to penetration into the cytoplasmic membrane, induction of α-helical structure and disruption of membrane structure to kill target cells (93). Thus, if the self-association ability of a peptide in aqueous media is too strong (e.g., forming stable folded dimers through interaction of their non-polar faces) this could decrease the ability of the peptide to dissociate to monomer, in addition oligomerization of the peptide can prevent it from effectively passing through the capsule and cell wall to reach the membrane. The ability of the peptides in the present study to self-associate was determined by the technique of RP-HPLC temperature profiling at pH 2 (29, 30, 38). The reason pH 2 is used to determine self-association of cationic AMPs is that highly positively charged peptides are frequently not eluted from reversed-phase columns at pH 7 due to non-specific binding to negatively charged silanols on the column matrix. This is not a problem at pH 2 since the silanols are protonated (i.e., neutral) and non-specific electrostatic interactions are eliminated. At pH 2, the interactions between the peptide and the reversed-phase matrix involve ideal retention behavior, i.e., only hydrophobic interactions between the preferred binding domain (nonpolar face) of the amphipathic molecule and the hydrophobic surface of the column matrix are present (39). […] Control peptide C is a monomeric random coil peptide in both aqueous and hydrophobic media; thus, its linear decrease in peptide retention behavior with increasing temperature within the range of 5° C. to 80° C. represents only the general effects of temperature due to greater solute diffusivity and enhanced mass transfer between the stationary and mobile phase at higher temperatures (55). To allow for these general temperature effects, the data for the control peptide was subtracted from each temperature profile as shown in FIG. 2B. Thus, the peptide self-association parameter, PA, represents the maximum change in peptide retention time relative to the random coil peptide C. Note that the higher the PA value, the greater the self-association.

[2] = Hemolytic activity against human erythrocytes (HC50 / MHC, microtiter dilution); assay type: cell-based; settings: human, 1% human erythrocytes, pH 7.4
Protocol: (§3) Hemoglobin release was determined spectrophotometrically at 570 nm. The hemolytic activity was determined as the peptide concentration that caused 50% hemolysis of erythrocytes after 18 h (HC50). […] HC50 was determined by a plot of peptide concentration versus percent lysis.

[3] = system: Methicillin Resistant Staphylococcus aureus (MRSA) and Staphylococcus aureus; assay type: cell-based
Protocol: as §1, §2
Identification of Antimicrobial Peptides for Gram-positive Bacteria. In a manner similar to testing against gram-negative bacteria, experiments were carried out to screen the 14 peptides used to identify antimicrobial peptides with significant activity against A. baumanii shown above against 20 different clinical isolates of Methicillin Resistant Staphylococcus aureus (MRSA) and Staphylococcus aureus.

[4] = RP-HPLC retention as measure of overall peptide hydrophobicity; assay type: physicochemical; settings: pH 2, room temperature
Protocol: Crude and purified peptides were analyzed on an Agilent 1100 series liquid chromatograph (Little Falls, Del.). Runs were performed on a Zorbax 300 SB-C8 column (150×2.1 mm I.D.; 5 μm particle size, 300 Å pore size) from Agilent Technologies using linear AB gradient (1% acetonitrile/min) and a flow rate of 0.25 ml/min, where eluant A was 0.2% aqueous TFA, pH 2 and eluant B was 0.2% TFA in acetonitrile.

human erythrocytes = assay: Hemolytic activity against human erythrocytes (HC50 / MHC, microtiter dilution); assay type: cell-based
Protocol: as §3

MIC PAO 1 (Pseudomonas aeruginosa; Brain Heart Infusion medium) [µg/mL]	MIC GM (geometric mean of the MIC values) (Pseudomonas aeruginosa; Brain Heart Infusion medium) [µg/mL]	MIC CP 204 (Pseudomonas aeruginosa; Brain Heart Infusion medium) [µg/mL]	MIC M 2 (Pseudomonas aeruginosa; Brain Heart Infusion medium) [µg/mL]	MIC PA 14 (Pseudomonas aeruginosa; Brain Heart Infusion medium) [µg/mL]	MIC PAK (Pseudomonas aeruginosa; Brain Heart Infusion medium) [µg/mL]	MIC WR 5 (Pseudomonas aeruginosa; Brain Heart Infusion medium) [µg/mL]	MIC PAO 1 (Pseudomonas aeruginosa; Mueller Hinton medium) [µg/mL]	MIC GM (geometric mean of the MIC values) (Pseudomonas aeruginosa; Mueller Hinton medium) [µg/mL]	MIC CP 204 (Pseudomonas aeruginosa; Mueller Hinton medium) [µg/mL]	MIC M 2 (Pseudomonas aeruginosa; Mueller Hinton medium) [µg/mL]	MIC PA 14 (Pseudomonas aeruginosa; Mueller Hinton medium) [µg/mL]	MIC PAK (Pseudomonas aeruginosa; Mueller Hinton medium) [µg/mL]	MIC WR 5 (Pseudomonas aeruginosa; Mueller Hinton medium) [µg/mL]	MIC GM (geometric mean) (Acinetobacter baumannii) [µM]	PA (dimerization / self-association parameter) [1]	MIC GM (geometric mean) [3] [µM]	Hydrophobicity (retention time in RP-HPLC) [4]	Pseudomonas aeruginosa MICGM (Pseudomonas aeruginosa) [µM]	Compound	HC50 at 18 h [2]	also measured
7.8 (≈ 2.62 µM)	9.8	15.6 (≈ 5.23 µM)	7.8 (≈ 2.62 µM)	7.8 (≈ 2.62 µM)	15.6 (≈ 5.23 µM)	7.8 (≈ 2.62 µM)	7.8 (≈ 2.62 µM)	12.4	31.3 (≈ 10.5 µM)	15.6 (≈ 5.23 µM)	7.8 (≈ 2.62 µM)	7.8 (≈ 2.62 µM)	15.6 (≈ 5.23 µM)	0.6 (≈ 1.79 µg/mL)	6.39	6.0 (≈ 17.9 µg/mL)	95.90 min	–	CC[C@@H](C)[C@@H](NC(=O)[C@@H](C)NC(=O)[C@@H](CCCCN)NC(=O)[C@@H](CC(C)C)NC(=O)[C@@H](CC(C)C)NC(=O)[C@H](NC(=O)[C@@H](CCCCN)NC(=O)[C@@H](CC(C)C)NC(=O)[C@@H](C)NC(=O)[C@@H](CCCCN)NC(=O)[C@@H](CCCCN)NC(=O)[C@@H](CCCCN)NC(=O)[C@@H](C)NC(=O)[C@@H](CCCCN)NC(=O)[C@@H](CO)NC(=O)[C@@H](Cc1ccccc1)NC(=O)[C@H](NC(=O)[C@@H](CCCCN)NC(=O)[C@@H](CC(C)C)NC(=O)[C@@H](Cc1ccccc1)NC(=O)[C@@H](CO)NC(=O)[C@@H](CCCCN)NC(=O)[C@@H](Cc1c[nH]c2ccccc12)NC(=O)[C@@H](CO)NC(C)=O)[C@H](C)O)[C@H](C)O)C(=O)N[C@H](CO)C(=O)N[C@H](CO)C(N)=O [Peptide D20, Ac-SWKSFLKTFSKAKKKALKTLLKAISS-amide]	77 µg/mL and 25.8 µM	–
15.6 (≈ 5.16 µM)	6.2	15.6 (≈ 5.16 µM)	3.9 (≈ 1.29 µM)	3.9 (≈ 1.29 µM)	3.9 (≈ 1.29 µM)	3.9 (≈ 1.29 µM)	7.8 (≈ 2.58 µM)	6.2	15.6 (≈ 5.16 µM)	15.6 (≈ 5.16 µM)	0.5 (≈ 0.165 µM)	3.9 (≈ 1.29 µM)	15.6 (≈ 5.16 µM)	1.1 (≈ 3.33 µg/mL)	6.00	7.3 (≈ 22.1 µg/mL)	93.77 min	–	CC[C@@H](C)[C@@H](NC(=O)[C@@H](C)NC(=O)[C@@H](CCCCN)NC(=O)[C@@H](CC(C)C)NC(=O)[C@@H](CC(C)C)NC(=O)[C@H](NC(=O)[C@@H](CCCCN)NC(=O)[C@@H](CC(C)C)NC(=O)[C@@H](C)NC(=O)[C@@H](CCCCN)NC(=O)[C@@H](CCCCN)NC(=O)[C@@H](CCCCN)NC(=O)[C@@H](C)NC(=O)[C@@H](CCCCN)NC(=O)[C@@H](CO)NC(=O)[C@@H](Cc1ccccc1)NC(=O)[C@H](NC(=O)[C@@H](CCCCN)NC(=O)[C@@H](CC(C)C)NC(=O)[C@@H](Cc1ccccc1)NC(=O)[C@@H](CO)NC(=O)[C@@H](CCCCN)NC(=O)[C@@H](Cc1c[nH]c2ccccc12)NC(=O)[C@@H](CO)NC(C)=O)[C@H](C)O)[C@H](C)O)C(=O)N[C@H](CO)C(=O)N[C@H](CCCCN)C(N)=O [Peptide D21, Ac-SWKSFLKTFSKAKKKALKTLLKAISK-amide]	88.5 µg/mL and 29.3 µM	–
15.6 (≈ 5.09 µM)	9.8	31.3 (≈ 10.2 µM)	3.9 (≈ 1.27 µM)	3.9 (≈ 1.27 µM)	7.8 (≈ 2.55 µM)	15.6 (≈ 5.09 µM)	3.9 (≈ 1.27 µM)	7.0	31.3 (≈ 10.2 µM)	15.6 (≈ 5.09 µM)	0.5 (≈ 0.163 µM)	3.9 (≈ 1.27 µM)	31.3 (≈ 10.2 µM)	0.8 (≈ 2.45 µg/mL)	5.13	12.1 (≈ 37.1 µg/mL)	90.7 min and 90.67 min	2.3	CC[C@@H](C)[C@@H](NC(=O)[C@@H](C)NC(=O)[C@@H](CCCCN)NC(=O)[C@@H](CC(C)C)NC(=O)[C@@H](CC(C)C)NC(=O)[C@H](NC(=O)[C@@H](CCCCN)NC(=O)[C@@H](CC(C)C)NC(=O)[C@@H](C)NC(=O)[C@@H](CCCCN)NC(=O)[C@@H](CCCCN)NC(=O)[C@@H](CCCCN)NC(=O)[C@@H](C)NC(=O)[C@@H](CCCCN)NC(=O)[C@@H](CO)NC(=O)[C@@H](Cc1ccccc1)NC(=O)[C@H](NC(=O)[C@@H](CCCCN)NC(=O)[C@@H](CC(C)C)NC(=O)[C@@H](Cc1ccccc1)NC(=O)[C@@H](CO)NC(=O)[C@@H](CCCCN)NC(=O)[C@@H](Cc1c[nH]c2ccccc12)NC(=O)[C@@H](CCCCN)NC(C)=O)[C@H](C)O)[C@H](C)O)C(=O)N[C@H](CO)C(=O)N[C@H](CCCCN)C(N)=O [Peptide D22, Ac-KWKSFLKTFSKAKKKALKTLLKAISK-amide]	249 µg/mL and 81.3 µM	Acinetobacter baumannii MICGM (Acinetobacter baumannii): 0.8 µM
–	–	–	–	–	–	–	–	–	–	–	–	–	–	–	–	–	–	2	CC(=O)N[C@H](CCCCN)C(=O)N[C@H](CC(C)C)C(=O)N[C@H](CCCCN)C(=O)N[C@H](CO)C(=O)N[C@H](CC(C)C)C(=O)N[C@H](CC(C)C)C(=O)N[C@H](CCCCN)C(=O)N[C@@H](C(=O)N[C@H](CC(C)C)C(=O)N[C@H](CO)C(=O)N[C@H](CCCCN)C(=O)N[C@H](CC(C)C)C(=O)N[C@H](CCCCN)C(=O)N[C@H](CCCCN)C(=O)N[C@H](CCCCN)C(=O)N[C@H](CCCCN)C(=O)N[C@H](CC(C)C)C(=O)N[C@H](CCCCN)C(=O)N[C@@H](C(=O)N[C@H](CC(C)C)C(=O)N[C@H](CC(C)C)C(=O)N[C@H](CCCCN)C(=O)N[C@H](C)C(=O)N[C@H](CC(C)C)C(=O)N[C@H](CO)C(=O)N[C@H](CCCCN)C(N)=O)[C@H](C)O)[C@H](C)O [Peptide D23, Ac-KLKSLLKTLSKLKKKKLKTLLKALSK-amide]	–	Acinetobacter baumannii MICGM (Acinetobacter baumannii): 0.8 µM; Hemolytic activity HC50 (human erythrocytes): 186 µM
